EP1087941B9, “THIOLESTERS AND USES THEREOF” (THE UNITED STATES OF AMERICA, as represented by THE …, priority 1998, dated 1999)
Like-named read-outs stand apart in the source and are kept apart here.

Experiments:
CEM-SS cells = test: cells; type: cell-based; details: for IC50: Homo sapiens, CEM-SS; for toxicity at the high test dose: high test dose of 316 µM
Description: (§1) One exemplary means to determine antiviral activity is with CEM-SS cells and virus (e.g., HIV-1RF) (MOI = 0.01) using the XTT (2,3-bis[2-methoxy- 4-nitro-5-sulfophenyl] -5- [(phenylamino)carbonyl]-2H-tetrazolium hydroxide) cytoprotection assay, as described by Rice (1993) PNAS 90:9721-9724, and Rice (1997) Antimicrob. Agents Chemother. 41:419-426. Briefly, cells are infected with HIV-1RF (or other virus to be tested) in the presence of various dilutions of test compounds (thiolesters and controls). The cultures are incubated for seven days. During this time control cultures without protective compounds (i.e., compounds with anti-viral activity) replicate virus, induce syncytia, and result in about 90% cell death. The cell death is measured by XTT dye reduction. XTT is a soluble tetrazolimn dye that measures mitochondrial energy output, similar to MTT. Positive controls using dextran sulfate (an attachment inhibitor) or 3'-Azido -2'-3'-dideoxythymidine, AZT (a reverse transcriptase inhibitor) are added to each assay. Individual assays are done in duplicate using a sister plate method.
(§2) Effective antiviral concentrations providing 50% cytoprotection (EC50), and cellular growth inhibitory concentrations causing 50% cytotoxicity (IC50) are calculated.

[1] = molecular target: T1, recombinant HIV-1 NCp7 protein (Human immunodeficiency virus type 1 group M subtype B, UniProt P03347); test: Trp37 zinc finger fluorescence (zinc ejection) assay; type: biochemical; details: for Zinc Finger Reactivity RFU/30 min: Table 2; for zinc finger reactivity: result in words
T1 construct: within the nucleocapsid p7 (NCp7) protein portion of the polyprotein
Procedure: Zinc finger reactivity was measured using a Zn specific fluorochrome, TSQ, N-(6-methoxy-8-quinolyl) -p-toluenesulfonamide, assay or a Trp37 zinc finger fluorescence assay. Fluorescent measurements of the Trp37 residue in the C-terminal finger of recombinant HIV-1 NCp7 protein were performed as described by Rice (1995) Science 270:1194-1197; Rice (1997) Antimicrob. Agents Chemother. 41:419-426. Measurement of Zn ejection from both fingers was measured using the Zn-selective fluorchrome probe TSQ (Molecular Probes, Eugene OR) as described by Rice (1996) J. Med. Chem 39:3606-3616. Measurement of the ability of NCp7 to bind to a DNA oligomer, a 44 mer: […] (SEQ ID NO:1), analogous to the HIV-1 RNA packaging site was carried out as described by Huang (1998) J. Med. Chem. 41:1371-1381, see also, Rossio (1998) HIV Pathogenesis and Treatment: Keystone Symposium on Molecular and Cellular Biology, Abstract # 4082. Briefly, 50 nM NCp7 was treated with test compounds for 1 hour at RT in […] buffer containing 10% glycerol and 50 mM Tris-HCl (pH 7.5). Labeled oligomer (0.1 picomole, end labeled [^32P]) was added in an equal volume of buffer containing 10% glycerol, 50 mM Tris-HCl (pH 7.5), 400 mM KCl and 40 mM MgCl2. The reaction was continued for 15 min at room temperature, and a total of […] (or 1/4 of the total reaction volume) was separated on nondenaturing 4.5% polyacrylamide gels in 0.5X Tris-Borate electrophoresis buffer. NCp7-oligomer complexes were visualized by autoradiography.
Changes in the intrinsic fluorescence of aromatic protein moieties are commonly used to monitor a reaction which involves a change in protein conformation. In the present invention, fluorescence can be used to monitor the loss of metal ion from a zinc finger, e.g., the loss of zinc from a CCHC retroviral zinc finger protein, after contact with a thiolester of the invention. The intrinsic fluorescence of Trp 37 in the second zinc finger of HIV-1 NC protein has been used to monitor nucleic acid binding and conformation of the zinc finger complex (see, Summers (1992) supra).
Zinc ejection is measured by the ability of compounds to chemically attack the cysteines in purified NCp7 protein resulting in a loss of fluorescence due to the movement of the tryptophan 37 residue from an exposed to an internal position on the protein. Zinc ejection is measured and expressed as either percent decrease in total fluorescence or decrease in relative fluorescence units per min during a 30 min assay (RFU/min). A thiolester is considered within the scope of the invention if any amount of zinc ejection is detected. For example, compound 50 has a zinc ejection rate of 0.86 RFU/min.

HIV-1RF = test: XTT cytoprotection assay (antiviral activity); type: cell-based; details: for antiviral activity: result in words
Description: as §1, §2

[2] = read-out: Antiviral Activity IC50
[3] = read-out: IC50 / cellular toxicity
[4] = average decrease in relative fluorescence
[5] = Human immunodeficiency virus 1, read-out: Antiviral Activity EC50
[6] = Table 3, average decrease in relative fluorescence
[7] = Human immunodeficiency virus 1, B104
[8] = Human immunodeficiency virus 1, read-out: EC50 (concentration inhibiting 50% virus replication)
[9] = Table 4, average decrease in relative fluorescence units over 30 min
[10] = read-out: Antiviral Activity IC50%
[11] = Table 5, average decrease in relative fluorescence units over 30 min

Row | Structure (SMILES) | IC50 (CEM-SS cells; [2]) [µM] | EC50 (HIV-1RF; [5]) [µM] | Zinc Finger Reactivity RFU/ min [1, 6] [RFU/ min] | other results
1 | NS(=O)(=O)c1ccc(Cn2sc3ccccc3c2=O)cc1 [23 BITA] | 53.7 | 13.8 |  | IC50 (CEM-SS cells; [3]): 53.7 µM; Zinc Finger Reactivity RFU/30 min [1, 4]: 2.7 RFU/30 min
2 | NS(=O)(=O)c1ccc(CCn2sc3ccccc3c2=O)cc1 [24 BITA] | 45.5 | 2 |  | Zinc Finger Reactivity RFU/30 min [1, 4]: 2.7 RFU/30 min
3 | CC(=O)Nc1ccc(S(=O)(=O)Nc2ccc(S(=O)(=O)c3ccc(-n4sc5ccccc5c4=O)cc3)cc2)cc1 [28 BITA] | 188 | 9.6 | 7.9 | 
4 | O=c1c2ccccc2sn1-c1ccc(S(=O)(=O)c2ccc([N+](=O)[O-])cc2)cc1 [31 BITA] | > 316 | > 316 | 4.1 | antiviral activity (HIV-1RF): without antiviral activity
5 | O=c1c2ccccc2sn1-c1ccc(S(=O)(=O)c2ccc(NS(=O)(=O)Cc3ccccc3[N+](=O)[O-])cc2)cc1 [34 BITA] | 59.5 | 3.2 | 2 | antiviral activity (HIV-1RF): significant antiviral activity
6 | NS(=O)(=O)c1ccc(CNC(=O)c2ccccc2SSc2ccccc2C(=O)NCc2ccc(S(N)(=O)=O)cc2)cc1 [Compound 23D, N,N'-(2,2'-dithiodibenzoyl)-bis-4-(aminomethyl)benzene-sulfonamide] | 19.4 | 0.33 |  | IC50 (CEM-SS cells; [3]): 19.4 µM; zinc finger reactivity / zinc ejection rate [1]: 3.3 RFU/min; Zinc Finger Reactivity RFU/30 min [1, 4]: 3.3 RFU/30 min
7 | NS(=O)(=O)c1ccc(CCNC(=O)c2ccccc2SSc2ccccc2C(=O)NCCc2ccc(S(N)(=O)=O)cc2)cc1 [Compound 24D, N,N-(2,2'-dithiodibenzoyl)-bis-4-(2-aminoethyl)benzene-sulfonamide] | 52.8 | 0.41 |  | Zinc Finger Reactivity RFU/30 min [1, 4]: 2.7 RFU/30 min
8 | NS(=O)(=O)c1ccc(NC(=O)CNC(=O)c2ccccc2SSc2ccccc2C(=O)NCC(=O)Nc2ccc(S(N)(=O)=O)cc2)cc1 [Compound 25D, N,N'-(2,2'-dithiodibenzoyl)-bis-4-(glycinamido)benzene-sulfonamide] | 17.6 | 1.6 |  | zinc finger reactivity / zinc ejection rate [1]: 7.9 RFU/min; Zinc Finger Reactivity RFU/30 min [1, 4]: 7.9 RFU/30 min
9 | Nc1ccc(S(=O)(=O)c2ccc(NC(=O)c3ccccc3SSc3ccccc3C(=O)Nc3ccc(S(=O)(=O)c4ccc(N)cc4)cc3)cc2)cc1 [Compound 26D] | < 316 | 4.3 | 3.3 | toxicity at the high test dose (CEM-SS cells): no toxicity; zinc finger reactivity / zinc ejection rate [1]: 3.3 RFU/min; EC50 (HIV-1RF; [7]): 4.3 µM; EC50 (HIV-1RF; [8]): 4.3 µM
10 | CC(=O)Nc1ccc(S(=O)(=O)c2ccc(NC(=O)c3ccccc3SSc3ccccc3C(=O)Nc3ccc(S(=O)(=O)c4ccc(NC(C)=O)cc4)cc3)cc2)cc1 [Compound 27D] | 160 | 1.5 | 5.9 | IC50 (CEM-SS cells; [3]): 160 µM; zinc finger reactivity / zinc ejection rate [1]: 5.9 RFU/min; EC50 (HIV-1RF; [7]): 1.5 µM; EC50 (HIV-1RF; [8]): 1.5 µM
11 | CC(=O)Nc1ccc(S(=O)(=O)Nc2ccc(S(=O)(=O)c3ccc(NC(=O)c4ccccc4SSc4ccccc4C(=O)Nc4ccc(S(=O)(=O)c5ccc(NS(=O)(=O)c6ccc(NC(C)=O)cc6)cc5)cc4)cc3)cc2)cc1 [Compound 28D] | 12.7 | 1 | 5.9 | 
12 | COc1ccc(C(=O)Nc2ccc(S(=O)(=O)c3ccc(NC(=O)c4ccccc4SSc4ccccc4C(=O)Nc4ccc(S(=O)(=O)c5ccc(NC(=O)c6ccc(OC)cc6)cc5)cc4)cc3)cc2)cc1 [Compound 29D] | 79.6 | 3.8 | 6.9 | 
13 | O=C(Nc1ccc(S(=O)(=O)c2ccc(NC(=O)c3ccccc3SSc3ccccc3C(=O)Nc3ccc(S(=O)(=O)c4ccc(NC(=O)c5cccs5)cc4)cc3)cc2)cc1)c1cccs1 [Compound 30D] | 190 | 12.2 |  | 
14 | O=C(Nc1ccc(S(=O)(=O)c2ccc([N+](=O)[O-])cc2)cc1)c1ccccc1SSc1ccccc1C(=O)Nc1ccc(S(=O)(=O)c2ccc([N+](=O)[O-])cc2)cc1 [Compound 31D] | > 316 | 12.2 | 2.9 | toxicity at the high test dose (CEM-SS cells): no toxicity; EC50 (HIV-1RF; [8]): 12.2 µM
15 | O=C(Nc1ccc(S(=O)(=O)c2ccc(NC(=O)c3ccccc3SSc3ccccc3C(=O)Nc3ccc(S(=O)(=O)c4ccc(NC(=O)c5ccc([N+](=O)[O-])cc5)cc4)cc3)cc2)cc1)c1ccc([N+](=O)[O-])cc1 [Compound 32D] | > 316 | 78 | 2.9 | 
16 | O=C(Nc1ccc(S(=O)(=O)c2ccc(NC(=O)c3ccccc3SSc3ccccc3C(=O)Nc3ccc(S(=O)(=O)c4ccc(NC(=O)c5cc([N+](=O)[O-])cc([N+](=O)[O-])c5)cc4)cc3)cc2)cc1)c1cc([N+](=O)[O-])cc([N+](=O)[O-])c1 [Compound 33D] | > 316 | 240 | 1.6 | 
17 | O=C(Nc1ccc(S(=O)(=O)c2ccc(NS(=O)(=O)Cc3ccccc3[N+](=O)[O-])cc2)cc1)c1ccccc1SSc1ccccc1C(=O)Nc1ccc(S(=O)(=O)c2ccc(NS(=O)(=O)Cc3ccccc3[N+](=O)[O-])cc2)cc1 [Compound 34D] | > 316 |  | 1.5 | toxicity at the high test dose (CEM-SS cells): no toxicity; EC50 (HIV-1RF; [8]): 12.3 µM; antiviral activity (HIV-1RF): significant antiviral activity
18 | Nc1cccc(S(=O)(=O)c2cccc(NC(=O)c3ccccc3SSc3ccccc3C(=O)Nc3cccc(S(=O)(=O)c4cccc(N)c4)c3)c2)c1 [Compound 35] | 81.5 | 1 |  | zinc finger reactivity / zinc ejection rate [1]: 0.92 RFU/min; Zinc Finger Reactivity RFU/ min [1, 9]: 0.92 RFU/min; EC50 (HIV-1RF; [7]): 1 µM
19 | CC(=O)Nc1cccc(S(=O)(=O)c2cccc(NC(=O)c3ccccc3SSc3ccccc3C(=O)Nc3cccc(S(=O)(=O)c4cccc(NC(C)=O)c4)c3)c2)c1 [Compound 36] | 5.9 | 0.62 |  | zinc finger reactivity / zinc ejection rate [1]: 2 RFU/min; Zinc Finger Reactivity RFU/ min [1, 9]: 2 RFU/min; EC50 (HIV-1RF; [7]): 0.62 µM
20 | CC(=O)NS(=O)(=O)c1ccc(NC(=O)c2ccccc2NC(=O)CCCl)cc1 [Compound 37, N-[2-(3-chloro-propionamido)benzoyl]sulfacetamide] |  |  |  | IC50 (CEM-SS cells; [10]): > 316 µM; Zinc Finger Reactivity RFU/ min [1, 11]: RFU/ min^b 2.0; zinc finger reactivity [1]: modest zinc finger reactivity; antiviral activity (HIV-1RF): neither had appreciable antiviral activity
21 | CC(=O)NS(=O)(=O)c1ccc(NC(=O)c2cccc(NC(=O)CCCl)c2)cc1 [Compound 38] |  | 38 |  | IC50 (CEM-SS cells; [10]): 103 µM; Zinc Finger Reactivity RFU/ min [1, 11]: 3.9 RFU/ min; zinc finger reactivity [1]: modest zinc finger reactivity; antiviral activity (HIV-1RF): neither had appreciable antiviral activity
22 | CC(=O)NS(=O)(=O)c1ccc(NC(=O)c2ccccc2NC(=O)CCl)cc1 [Compound 39] |  | > 316 |  | IC50 (CEM-SS cells; [10]): 202 µM; Zinc Finger Reactivity RFU/ min [1, 11]: 0.3 RFU/ min; antiviral activity (HIV-1RF): completely inactive
